pIC50: −log10 of the molar value.
Columns and labels:
leukotriene biosynthesis = assay: Inhibition of leukotriene biosynthesis in vivo after oral administration, rat peritoneal anaphylaxis model; settings: 100 μmol/kg oral (gavage), 1 h before antigen challenge, read-out: % Inhibition of Leukotrienes at 100 μmol/kg oral dose
Method: Inhibition of the biosynthesis of leukotrienes in vivo after oral administration of representative test compounds of this invention was determined using a rat peritoneal anaphylaxis model in a similar manner as that described by Young and coworkers (Young, P. R.; Dyer, R. D.; Carter, G. W. Fed. Proc., Fed. Am. Soc. Exp. Biol. 1985, 44, 1185). In this model rats were injected intraperitoneally (ip) with rabbit antibody to bovine serum albumin (BSA) and three hours later injected ip with BSA to induce an antgen-antibody response. Rats were sacrificed 15 minutes after this challenge and the peritoneal fluids were collected and analyzed for leukotriene levels. Test compounds were administered by gavage one hour prior to the antigen challenge. Percent inhibition values were determined by comparing the treatment group to the mean of the control group. The results of this assay, for representative compounds of the present invention, at an oral dose level of […] are presented in Table 2, and at an oral dose of […] in Table 3.

[1] = system: LTB4 biosynthesis in human whole blood; assay: Inhibition of calcium ionophore-induced LTB4 biosynthesis in human whole blood; format: cell-based; settings: for pIC50: A23187 50 μM, 15 min preincubation, read-out: Inhibition of Leukotriene Biosynthesis IC50; for inhibition at 0.2 µM: read-out: Inhibition of Leukotriene Biosynthesis (% at 0.2 μM)
Method: Inhibition of leukotriene biosynthesis was evaluated in an assay, involving calcium ionophore-induced LTB4 biosynthesis expressed by human whole blood. Heparinized (20 U/mL) human blood (0.3 mL) was preincubated with test compound or vehicle for 15 min. at 37° C. Eicosanoid biosynthesis was initiated by adding calcium ionophore (A23187) in DMSO to a final concentration of 50 μM and terminated after 30 min. by rapid cooling of the blood in an ice bath and centrifuging at 3° C. for 10 min at 2500×g. The plasma was mixed with 4 volumes of methanol and allowed to stand for at least 30 min. at 3° C. prior to centrifuging at 1800×g for 10 min. The level of LTB4 in aliquots of the methanol-plasma extract was analyzed by radio-immunoassay or enyme-immunoassay techniques.

pIC50 [1]	Compound	inhibition in vivo at 100 µmol/kg (leukotriene biosynthesis)	further results
7.30	NC(=O)N(O)C[C@@H]1C[C@H]1c1cccc(Oc2cccnc2)c1 (relative stereo) [Example 168, N-(1-trans-(2-(3-(3-pyridyloxy)phenyl)cyclopropyl)methyl)-N-hydroxyurea]	99%	
	CNC(=O)N(O)C[C@@H]1C[C@H]1c1cccc(Oc2ccc(C)cc2)c1 (relative stereo) [Example 179, N-(1-trans-(2-(3-(4-methylphenoxy)phenyl)cyclopropyl)methyl)-N-hydroxy-N'-methylurea]	61%	inhibition at 0.2 µM [1]: 61%
6.17	CC([C@@H]1C[C@H]1c1ccsc1)N(O)C(N)=O (stereo partly drawn) [Example 189, N-(1-trans-(2-(3-thienyl)cyclopropyl)ethyl)-N-hydroxyurea]	73%	
6.62	CNC(=O)N(O)C[C@@H]1C[C@H]1c1ccoc1 (relative stereo) [Example 185, N-(1-trans-(2-(3-furanyl)cyclopropyl)methyl)-N-hydroxy-N'-methylurea]		
6.43	NC(=O)N(O)C[C@@H]1C[C@H]1c1cccs1 (relative stereo) [Example 194, N-(1-trans-(2-(2-thienyl)cyclopropyl)methyl)-N-hydroxyurea]	97%	
6.70	CCc1ccc(Oc2cccc([C@@H]3C[C@H]3CN(O)C(=O)NC)c2)cc1 (relative stereo) [Example 175, N-(1-trans-(2-(3-(4-ethylphenoxy)phenyl)cyclopropyl)methyl)-N-hydroxy-N'-methyl-hydroxyurea]		
6.33	NC(=O)N(O)C[C@@H]1C[C@H]1c1cccc(Oc2ccc(O)cc2)c1 (relative stereo) [Example 160, N-(1-trans-(2-(3(4-hydroxyphenoxy)phenyl)cyclopropyl)methyl)-N-hydroxyurea]		
6.60	Cc1cccc(Oc2cccc([C@@H]3C[C@H]3CN(O)C(N)=O)c2)n1 (relative stereo) [Example 163, N-(1-trans-(2-(3-(6-methyl-2-pyridyloxy)phenyl)cyclopropyl)methyl)-N-hydroxyurea]		
	Cc1ccccc1Oc1cccc([C@@H]2C[C@H]2CN(O)C(N)=O)c1 (relative stereo) [Example 170, N-(1-trans-(2-(3-(2-methylphenoxy)phenyl)cyclopropyl)methyl)-N-hydroxyurea]	94%	inhibition at 0.1 µM ([1]; 0.1 μM, read-out: Inhibition of Leukotriene Biosynthesis (% at 0.1 μM)): 89%
6.22	CNC(=O)N(O)C(C)[C@@H]1C[C@H]1c1ccc(C)s1 (stereo partly drawn) [Example 181, N-(1-trans-(2-(5-methyl-2-thienyl)cyclopropyl)ethyl)-N-hydroxy-N'-methylure]		
6.49	NC(=O)N(O)C[C@@H]1C[C@H]1c1ccsc1 (relative stereo) [Example 188, N-(1-trans-(2-(3-thienyl)cyclopropyl)methyl)-N-hydroxyurea]	97%	
6.64	NC(=O)N(O)C[C@@H]1C[C@H]1c1ccoc1 (relative stereo) [Example 193, N-(1-trans-(2-(3-furanyl)cyclopropyl)methyl)-N-hydroxyurea]	93%	
6.33	CNC(=O)N(O)C(C)[C@@H]1C[C@H]1c1ccsc1 (stereo partly drawn) [Example 186, N-(1-trans-(2-(3-thienyl)cyclopropyl)ethyl)-N-hydroxy-N'-methylurea]		
	CNC(=O)N(O)C[C@@H]1C[C@H]1c1cccc(Oc2ccccn2)c1 (relative stereo) [Example 171, N-(1-trans-(2-(3-(2-pyridyloxy)phenyl)cyclopropyl)methyl)-N-hydroxy-N'-methylurea]		inhibition at 0.39 µM ([1]; 0.39 μM, read-out: Inhibition of Leukotriene Biosynthesis (% at 0.39 μM)): 40%
6.85	Cc1cccc(Oc2cccc([C@@H]3C[C@H]3CN(O)C(N)=O)c2)c1 (relative stereo) [Example 174, N-(1-trans-(2-(3-(3-methylphenoxy)phenyl)cyclopropyl)methyl)-N-hydroxyurea]	96%	
6.02	CC([C@@H]1C[C@H]1c1cccc(Oc2ccccn2)c1)N(O)C(N)=O (single isomer, unassigned) [Example 172a, N-(1-trans-(2-(3-(2-pyridyloxy)phenyl)cyclopropyl)ethyl)-N-hydroxyurea]		
6.77	CCc1ccc(Oc2cccc([C@@H]3C[C@H]3CN(O)C(N)=O)c2)cc1 (relative stereo) [Example 176, N-(1-trans-(2-(3-(4-ethylphenoxy)phenyl)cyclopropyl)methyl)-N-hydroxyurea]	87%	
6.96	NC(=O)N(O)C[C@@H]1C[C@H]1c1cccc(Oc2nccs2)c1 (relative stereo) [Example 166, N-(1-trans-(2-(3-(2-thiazolyloxy)phenyl)cyclopropyl)methyl)-N-hydroxyurea]	91%	
6.77	NC(=O)N(O)C[C@@H]1C[C@H]1c1cccc(Oc2ccc(OCCO)cc2)c1 (relative stereo) [Example 161, N-(1-trans-(2-(3-(4-(2-hydroxyethoxy)phenoxy)phenyl)cyclopropyl)methyl)-N-hydroxyurea]		
6.07	CNC(=O)N(O)C(C)[C@@H]1C[C@H]1c1ccc(C)o1 (stereo partly drawn) [Example 184, N-(1-trans-(2-(5-methyl-2-furanyl)cyclopropyl)ethyl)-N-hydroxy-N'-methylurea]		
6.01	CC(=O)N(O)C(C)[C@@H]1C[C@H]1c1cccs1 (stereo partly drawn) [Example 196, N-(1-trans-(2-(2-thienyl)cyclopropyl)ethyl)-N-hydroxyacetamide]		
6.21	NC(=O)N(O)C[C@@H]1C[C@H]1c1cccc(Oc2cnc3ccccc3c2)c1 (relative stereo) [Example 164, N-(1-trans-(2-(3-(3-quinonyloxy)phenyl)cyclopropyl)methyl)-N-hydroxyurea]		
6.08	CNC(=O)N(O)C(C)[C@@H]1C[C@H]1c1ccoc1 (stereo partly drawn) [Example 191, N-(1-trans-(2-(3-furanyl)cyclopropyl)ethyl)-N-hydroxy-N'-methylurea]		
6.70	CC(=O)N(O)C[C@@H]1C[C@H]1c1cccs1 (relative stereo) [Example 190, N-(1-trans-(2-(2-thienyl)cyclopropyl)methyl)-N-hydroxyacetamide]		
6.72	CC(=O)N(O)C[C@@H]1C[C@H]1c1ccco1 (relative stereo) [Example 195, N-(1-trans-(2-(2-furanyl)cyclopropyl)methyl)-N-hydroxyacetamide]		
5.80	CC([C@@H]1C[C@H]1c1cccs1)N(O)C(N)=O (stereo partly drawn) [Example 197, N-(1-trans-(2-(2-thienyl)cyclopropyl)ethyl)-N-hydroxyurea]		
6.64	CNC(=O)N(O)C[C@@H]1C[C@H]1c1cccc(Oc2cccc(C)c2)c1 (relative stereo) [Example 173, N-(1-trans-(2-(3-(3-methylphenoxy)phenyl)cyclopropyl)methyl)-N-hydroxy-N-methylurea]		
	CNC(=O)N(O)C[C@@H]1C[C@H]1c1cccc(Oc2ccc(F)cc2)c1 (relative stereo) [Example 177, N-(1-trans-(2-(3-(4-fluorophenoxy)phenyl)cyclopropyl)methyl)-N-hydroxy-N'-methylurea]		inhibition at 0.2 µM [1]: 69%
6.16	Cc1ccc([C@@H]2C[C@H]2C(C)N(O)C(N)=O)s1 (stereo partly shown) [Example 182]		
6.60	Cc1ccc(Oc2cccc([C@@H]3C[C@H]3C(C)CN(O)C(N)=O)c2)cc1 (stereo partly drawn) [Example 162, N-(2-trans-(2-(3-(4-methylphenoxy)phenyl)cyclopropyl)propyl)-N-hydroxyurea]		

Source: patent US5120752A, “Cyclopropyl derivative lipoxygenase inhibitors” (Abbott Laboratories, priority 1990, dated 1992)
